{"source": "patent US12338220B2", "about": "“Antiviral pyrazolopiridinone compounds” (Novartis AG, priority 2019, dated 2025)", "key": {"[1]": {"system": "CMV", "assay": "microbe, parasite or virus in culture", "assay_type": "cell-based", "settings": "Human betaherpesvirus 5, 72 h, read-out: CMV-Luc Cellular EC50, NN-NHDF cells, MOI 1, 72 hrs"}, "[2]": {"target": "CMV-polymerase (Human cytomegalovirus (strain AD169) (HHV-5) (Human herpesvirus 5), UniProt P08546)", "assay": "biochemical"}, "[3]": {"settings": "read-out: CMV-polymerase Biochemical IC50"}, "[4]": {"settings": "CMV-polymerase Biochemical IC50"}}, "note": "Like-named read-outs stand apart in the source and are kept apart here.", "data": [{"smiles": "Cc1cc(C#N)ccc1CNC(=O)c1nn(C)c2c1CCN(CC1(S(=O)(=O)C3CC3)CC1)C2=O", "note": "[Example 12, N-(4-Cyano-2-methylbenzyl)-6-((1-(cyclopropylsulfonyl)cyclopropyl)methyl)-1-methyl-7-oxo-4,5,6,7-tetrahydro-1H-pyrazolo[3,4-c]pyridine-3-carboxamide]", "values": [{"measurement": "EC50", "setting": "[1]", "result": 87, "unit": "nM"}, {"measurement": "IC50", "setting": "[2]; [3]", "result": 2, "unit": "nM"}]}, {"smiles": "Cn1nc(C(=O)NCc2ccc(C#N)cc2F)c2c1C(=O)N(CC1(S(=O)(=O)C3CC3)CC1)CC2", "note": "[Example 13, N-(4-Cyano-2-fluorobenzyl)-6-((1-(cyclopropylsulfonyl)cyclopropyl)methyl)-1-methyl-7-oxo-4,5,6,7-tetrahydro-1H-pyrazolo[3,4-c]pyridine-3-carboxamide]", "values": [{"measurement": "EC50", "setting": "[1]", "result": 102, "unit": "nM"}, {"measurement": "IC50", "setting": "[2]; [3]", "result": 6, "unit": "nM"}]}, {"smiles": "Cn1nc(C(=O)NCc2ccc(C#N)cn2)c2c1C(=O)N(CC1(S(=O)(=O)C3CC3)CC1)CC2", "note": "[Example 14, N-((5-Cyanopyridin-2-yl)methyl)-6-((1-(cyclopropylsulfonyl)cyclopropyl)methyl)-1-methyl-7-oxo-4,5,6,7-tetrahydro-1H-pyrazolo[3,4-c]pyridine-3-carboxamide]", "values": [{"measurement": "EC50", "setting": "[1]", "result": 585, "unit": "nM"}, {"measurement": "IC50", "setting": "[2]; [3]", "result": 95, "unit": "nM"}]}, {"smiles": "COc1cc(CNC(=O)c2nn(C)c3c2CCN(CC2(S(=O)(=O)C4CC4)CC2)C3=O)ccc1C#N", "note": "[Example 15, N-(4-Cyano-3-methoxybenzyl)-6-((1-(cyclopropylsulfonyl)cyclopropyl)methyl)-1-methyl-7-oxo-4,5,6,7-tetrahydro-1H-pyrazolo[3,4-c]pyridine-3-carboxamide]", "values": [{"measurement": "EC50", "setting": "[1]", "result": 162, "unit": "nM"}, {"measurement": "IC50", "setting": "[2]; [3]", "result": 11, "unit": "nM"}]}, {"smiles": "C[C@H](NC(=O)c1nn(C)c2c1CCN(CC1(S(=O)(=O)C3CC3)CC1)C2=O)c1ccc(C#N)cc1", "note": "[Example 16, (S)-N-(1-(4-Cyanophenyl)ethyl)-6-((1-(cyclopropylsulfonyl)cyclopropyl)methyl)-1-methyl-7-oxo-4,5,6,7-tetrahydro-1H-pyrazolo[3,4-c]pyridine-3-carboxamide]", "values": [{"measurement": "EC50", "setting": "[1]", "result": 170, "unit": "nM"}, {"measurement": "IC50", "setting": "[2]; [3]", "result": 13, "unit": "nM"}]}, {"smiles": "C[C@@H](NC(=O)c1nn(C)c2c1CCN(CC1(S(=O)(=O)C3CC3)CC1)C2=O)c1ccc(C#N)cc1", "note": "[Example 17, (R)-N-(1-(4-Cyanophenyl)ethyl)-6-((1-(cyclopropylsulfonyl)cyclopropyl)methyl)-1-methyl-7-oxo-4,5,6,7-tetrahydro-1H-pyrazolo[3,4-c]pyridine-3-carboxamide]", "values": [{"measurement": "EC50", "setting": "[1]", "result": "> 10000", "unit": "nM"}, {"measurement": "IC50", "setting": "[2]; [3]", "result": 16900, "unit": "nM"}]}, {"smiles": "Cn1nc(C(=O)N[C@@H](CO)c2ccc(Cl)cc2)c2c1C(=O)N(CC1(S(=O)(=O)C3CC3)CC1)CC2", "note": "[Example 18, (R)-N-(1-(4-Chlorophenyl)-2-hydroxyethyl)-6-((1-(cyclopropylsulfonyl)cyclopropyl)methyl)-1-methyl-7-oxo-4,5,6,7-tetrahydro-1H-pyrazolo[3,4-c]pyridine-3-carboxamide]", "values": [{"measurement": "EC50", "setting": "[1]", "result": 301, "unit": "nM"}, {"measurement": "IC50", "setting": "[2]; [3]", "result": 22, "unit": "nM"}]}, {"smiles": "Cn1nc(C(=O)N[C@H](CO)c2ccc(Cl)cc2)c2c1C(=O)N(CC1(S(=O)(=O)C3CC3)CC1)CC2", "note": "[Example 19, (S)-N-(1-(4-Chlorophenyl)-2-hydroxyethyl)-6-((1-(cyclopropylsulfonyl)cyclopropyl)methyl)-1-methyl-7-oxo-4,5,6,7-tetrahydro-1H-pyrazolo[3,4-c]pyridine-3-carboxamide]", "values": [{"measurement": "EC50", "setting": "[1]", "result": "> 10000", "unit": "nM"}, {"measurement": "IC50", "setting": "[2]; [3]", "result": 55, "unit": "nM"}]}, {"smiles": "CCS(=O)(=O)C1(CN2CCc3c(C(=O)NCc4ccc(C#N)cc4)nn(C)c3C2=O)CC1", "note": "[Example 20, N-(4-Cyanobenzyl)-6-((1-(ethylsulfonyl)cyclopropyl)methyl)-1-methyl-7-ox0-4,5,6,7-tetrahydro-1 H-pyrazolo[3,4-c]pyridine-3-carboxamide]", "values": [{"measurement": "EC50", "setting": "[1]", "result": 106, "unit": "nM"}, {"measurement": "IC50", "setting": "[2]; [3]", "result": 6, "unit": "nM"}]}, {"smiles": "Cn1nc(C(=O)NCc2ccc(C#N)cc2)c2c1C(=O)N(CC1(S(C)(=O)=O)CC1)CC2", "note": "[Example 21, N-(4-Cyanobenzyl)-1-methyl-6-((1-(methylsulfonyl)cyclopropyl)methyl)-7-oxo-4,5,6,7-tetrahydro-1 H-pyrazolo[3,4-c]pyridine-3-carboxamide]", "values": [{"measurement": "EC50", "setting": "[1]", "result": 147, "unit": "nM"}, {"measurement": "IC50", "setting": "[2]; [3]", "result": 9, "unit": "nM"}]}, {"smiles": "Cn1nc(C(=O)NCc2ccc(Cl)cc2)c2c1C(=O)N(CC1(S(C)(=O)=O)CC1)CC2", "note": "[Example 22, N-(4-Chlorobenzyl)-1-methyl-6-((1-(methylsulfonyl)cyclopropyl)methyl)-7-oxo-4,5,6,7-tetrahydro-1H-pyrazolo[3,4-c]pyridine-3-carboxamide]", "values": [{"measurement": "EC50", "setting": "[1]", "result": 113, "unit": "nM"}, {"measurement": "IC50", "setting": "[2]; [3]", "result": 12, "unit": "nM"}]}, {"smiles": "Cn1nc(C(=O)NCc2ccc(C#N)c(F)c2)c2c1C(=O)N(CC1(S(C)(=O)=O)CC1)CC2", "note": "[Example 23, N-(4-Cyano-3-fluorobenzyl)-1-methyl-6-((1-(methylsulfonyl)cyclopropyl)methyl)-7-oxo-4,5,6,7-tetrahydro-1H-pyrazolo[3,4-c]pyridine-3-carboxamide]", "values": [{"measurement": "EC50", "setting": "[1]", "result": 86, "unit": "nM"}, {"measurement": "IC50", "setting": "[2]; [3]", "result": 7, "unit": "nM"}]}, {"smiles": "Cn1nc(C(=O)COc2ccc(C#N)cc2)c2c1C(=O)N(CC1(S(=O)(=O)C3CC3)CC1)CC2", "note": "[Example 25, 4-(2-(6-((1-(Cyclopropylsulfonyl)cyclopropyl)methyl)-1-methyl-7-oxo-4,5,6,7-tetrahydro-1H-pyrazolo[3,4-c]pyridin-3-yl)-2-oxoethoxy)benzonitrile]", "values": [{"measurement": "EC50", "setting": "[1]", "result": 30, "unit": "nM"}, {"measurement": "IC50", "setting": "[2]; [4]", "result": 2, "unit": "nM"}]}, {"smiles": "Cn1nc(-c2nnc(Cc3ccc(C#N)cc3)o2)c2c1C(=O)N(CC1(S(=O)(=O)C3CC3)CC1)CC2", "note": "[Example 26, 4-((5-(6-((1-(Cyclopropylsulfonyl)cyclopropyl)methyl)-1-methyl-7-oxo-4,5,6,7-tetrahydro-1H-pyrazolo[3,4-c]pyridin-3-yl)-1,3,4-oxadiazol-2-yl)methyl)benzonitrile]", "values": [{"measurement": "EC50", "setting": "[1]", "result": 761, "unit": "nM"}, {"measurement": "IC50", "setting": "[2]; [4]", "result": 52, "unit": "nM"}]}, {"smiles": "Cn1nc(-c2nc(Cc3ccc(C#N)cc3)no2)c2c1C(=O)N(CC1(S(=O)(=O)C3CC3)CC1)CC2", "note": "[Example 27, 4-((5-(6-((1-(Cyclopropylsulfonyl)cyclopropyl)methyl)-1-methyl-7-oxo-4,5,6,7-tetrahydro-1H-pyrazolo[3,4-c]pyridin-3-yl)-1,2,4-oxadiazol-3-yl)methyl)benzonitrile]", "values": [{"measurement": "EC50", "setting": "[1]", "result": 211, "unit": "nM"}, {"measurement": "IC50", "setting": "[2]; [3]", "result": 7, "unit": "nM"}]}, {"smiles": "Cn1nc(-c2noc(Cc3ccc(C#N)cc3)n2)c2c1C(=O)N(CC1(S(=O)(=O)C3CC3)CC1)CC2", "note": "[Example 28, 4-((3-(6-((1-(Cyclopropylsulfonyl)cyclopropyl)methyl)-1-methyl-7-oxo-4,5,6,7-tetrahydro-1H-pyrazolo[3,4-c]pyridin-3-yl)-1,2,4-oxadiazol-5-yl)methyl)benzonitrile]", "values": [{"measurement": "EC50", "setting": "[1]", "result": 24, "unit": "nM"}, {"measurement": "IC50", "setting": "[2]; [4]", "result": 1, "unit": "nM"}]}, {"smiles": "Cn1nc(-c2nnn(Cc3ccc(C#N)cc3)n2)c2c1C(=O)N(CC1(S(=O)(=O)C3CC3)CC1)CC2", "note": "[Example 29, 4-((5-(6-((1-(Cyclopropylsulfonyl)cyclopropyl)methyl)-1-methyl-7-oxo-4,5,6,7-tetrahydro-1H-pyrazolo[3,4-c]pyridin-3-yl)-2H-tetrazol-2-yl)methyl)benzonitrile]", "values": [{"measurement": "EC50", "setting": "[1]", "result": 80, "unit": "nM"}, {"measurement": "IC50", "setting": "[2]; [3]", "result": 1, "unit": "nM"}]}, {"smiles": "Cn1nc(-c2nnnn2Cc2ccc(C#N)cc2)c2c1C(=O)N(CC1(S(=O)(=O)C3CC3)CC1)CC2", "note": "[Example 30, 4-((5-(6-((1-(cyclopropylsulfonyl)cyclopropyl)methyl)-1-methyl-7-oxo-4,5,6,7-tetrahydro-1H-pyrazolo[3,4-c]pyridin-3-yl)-1H-tetrazol-1-yl)methyl)benzonitrile]", "values": [{"measurement": "EC50", "setting": "[1]", "result": "> 10000", "unit": "nM"}, {"measurement": "IC50", "setting": "[2]; [3]", "result": 940, "unit": "nM"}]}, {"smiles": "Cn1nc(C2=NOC(c3ccc(C#N)cc3)C2)c2c1C(=O)N(CC1(S(=O)(=O)C3CC3)CC1)CC2", "note": "(centres unmarked) [Example 31, 4-(3-(6-((1-(Cyclopropylsulfonyl)cyclopropyl)methyl)-1-methyl-7-oxo-4,5,6,7-tetrahydro-1H-pyrazolo[3,4-c]pyridin-3-yl)-4,5-dihydroisoxazol-5-yl)benzonitrile]", "values": [{"measurement": "EC50", "setting": "[1]", "result": 101, "unit": "nM"}, {"measurement": "IC50", "setting": "[2]; [4]", "result": 12, "unit": "nM"}]}, {"smiles": "Cn1nc(-c2cc(Cc3ccc(C#N)cc3)on2)c2c1C(=O)N(CC1(S(=O)(=O)C3CC3)CC1)CC2", "note": "[Example 34, 4-((3-(6-((1-(Cyclopropylsulfonyl)cyclopropyl)methyl)-1-methyl-7-oxo-4,5,6,7-tetrahydro-1H-pyrazolo[3,4-c]pyridin-3-yl)isoxazol-5-yl)methyl)benzonitrile]", "values": [{"measurement": "EC50", "setting": "[1]", "result": 10, "unit": "nM"}, {"measurement": "IC50", "setting": "[2]; [4]", "result": 1, "unit": "nM"}]}, {"smiles": "Cn1nc(-c2cn(Cc3ccc(C#N)cc3)nn2)c2c1C(=O)N(CC1(S(=O)(=O)C3CC3)CC1)CC2", "note": "[Example 35, 4-((4-(6-((1-(Cyclopropylsulfonyl)cyclopropyl)methyl)-1-methyl-7-oxo-4,5,6,7-tetrahydro-1H-pyrazolo[3,4-c]pyridin-3-yl)-1H-1,2,3-triazol-1-yl)methyl)benzonitrile]", "values": [{"measurement": "EC50", "setting": "[1]", "result": 38, "unit": "nM"}, {"measurement": "IC50", "setting": "[2]; [4]", "result": 3, "unit": "nM"}]}, {"smiles": "Cn1nc(-c2cn(CC3CCC(F)(F)CC3)nn2)c2c1C(=O)N(CC1(S(=O)(=O)C3CC3)CC1)CC2", "note": "[Example 36, 6-((1-(Cyclopropylsulfonyl)cyclopropyl)methyl)-3-(1-((4,4-difluorocyclohexyl)methyl)-1H-1,2,3-triazol-4-yl)-1-methyl-5,6-dihydro-1H-pyrazolo[3,4-c]pyridin-7(4H)-one]", "values": [{"measurement": "EC50", "setting": "[1]", "result": 571, "unit": "nM"}, {"measurement": "IC50", "setting": "[2]; [3]", "result": 5, "unit": "nM"}]}, {"smiles": "Cn1nc(C(=O)NOc2ccc(Cl)cc2)c2c1C(=O)N(CC1(S(=O)(=O)C3(C)CC3)CC1)CC2", "note": "[Example 37, N-(4-Chlorophenoxy)-1-methyl-6-((1-((1-methylcyclopropyl)sulfonyl)cyclopropyl)methyl)-7-oxo-4,5,6,7-tetrahydro-1H-pyrazolo[3,4-c]pyridine-3-carboxamide]", "values": [{"measurement": "EC50", "setting": "[1]", "result": 105, "unit": "nM"}, {"measurement": "IC50", "setting": "[2]; [3]", "result": 7, "unit": "nM"}]}, {"smiles": "Cn1nc(C(=O)NCc2ccc(Cl)cc2)c2c1C(=O)N(CC1(S(=O)(=O)C(F)F)CC1)CC2", "note": "[Example 39, N-(4-Chlorobenzyl)-6-((1-((difluoromethyl)sulfonyl)cyclopropyl)methyl)-1-methyl-7-oxo-4,5,6,7-tetrahydro-1H-pyrazolo[3,4-c]pyridine-3-carboxamide]", "values": [{"measurement": "EC50", "setting": "[1]", "result": 376, "unit": "nM"}, {"measurement": "IC50", "setting": "[2]; [4]", "result": 25, "unit": "nM"}]}, {"smiles": "N#Cc1ccc(CNC(=O)c2nn(C3CC3)c3c2CCN(CC2(S(=O)(=O)C4CC4)CC2)C3=O)cc1", "note": "[Example 43, N-(4-Cyanobenzyl)-1-cyclopropyl-6-((1-(cyclopropylsulfonyl)cyclopropyl)methyl)-7-oxo-4,5,6,7-tetrahydro-1H-pyrazolo[3,4-c]pyridine-3-carboxamide]", "values": [{"measurement": "EC50", "setting": "[1]", "result": 66, "unit": "nM"}, {"measurement": "IC50", "setting": "[2]; [4]", "result": 2, "unit": "nM"}]}]}
